US6783949B1, “Processes for determining whether a test substance contains lipases or lipase inhibitors” (Aventis Pharma Deutschland GmbH, priority 1999, dated 2004)

Target: T1, HSL (Rattus norvegicus, UniProt P15304)
T1 construct: The partially purified HSL can be stored at −70° C. for 4 to 6 weeks; from tissue; host or cells: rat epididymal fat cells (male Wistar rats)
T1 sequence (P15304 1-768 isoform P15304-2): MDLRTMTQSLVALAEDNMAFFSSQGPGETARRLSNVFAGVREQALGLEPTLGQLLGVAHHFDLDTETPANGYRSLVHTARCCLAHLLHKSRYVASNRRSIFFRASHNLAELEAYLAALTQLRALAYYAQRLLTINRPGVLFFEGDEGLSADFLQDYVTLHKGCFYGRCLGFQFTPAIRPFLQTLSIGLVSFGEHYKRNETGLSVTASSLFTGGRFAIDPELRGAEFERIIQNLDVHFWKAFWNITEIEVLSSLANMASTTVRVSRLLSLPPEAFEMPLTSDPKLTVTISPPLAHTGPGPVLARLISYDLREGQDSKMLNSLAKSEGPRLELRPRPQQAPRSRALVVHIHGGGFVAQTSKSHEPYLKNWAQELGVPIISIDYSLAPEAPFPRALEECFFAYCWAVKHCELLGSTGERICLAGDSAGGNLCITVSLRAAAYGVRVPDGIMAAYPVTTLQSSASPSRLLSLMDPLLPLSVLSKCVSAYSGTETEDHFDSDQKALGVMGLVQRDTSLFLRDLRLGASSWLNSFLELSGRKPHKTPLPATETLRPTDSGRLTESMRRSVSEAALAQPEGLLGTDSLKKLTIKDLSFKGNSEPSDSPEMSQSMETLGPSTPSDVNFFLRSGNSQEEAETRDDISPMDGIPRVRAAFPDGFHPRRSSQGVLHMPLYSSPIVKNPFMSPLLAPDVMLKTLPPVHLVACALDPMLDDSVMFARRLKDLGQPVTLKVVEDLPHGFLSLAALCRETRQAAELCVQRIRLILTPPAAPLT
Assay: Indirect NAG assay (extinction increase at 481 nm)
Assay type: biochemical
Protocol: A typical reaction is carried out at 30° C. for 60 min, for example in 1.5 ml Eppendorf vessels or 96-hole plates. […] 180 μl of the substrate solution (20 μg/ml of phosphatidylcholine, 10 μg/ml of phosphatidylinositol, 50 μg/ml of NAG in assay buffer) are added. After a preincubation for 15 min at 30° C., 20 μl of HSL in assay buffer are pipetted in and the extinction is immediately measured (see above) at 481 nm in a cuvette photometer (0.5 ml cuvette) or microtiter plate reader. After a certain incubation time, which is variable and depends on the chosen enzyme concentration and can be between 2 and 240 minutes, in this case incubation at 30° C. for 60 min, the extinction is measured again. The increase in the extinction in the yellow region, in this case at 481 nm, is a measure of the enzyme activity.
Isolated rat fat cells are obtained from epididymal fatty tissue from untreated male rats (Wistar, 220-250 g) by collagenase treatment according to published processes. The fat cells from 10 rats are washed three times by flotation with 50 ml each of homogenization buffer ([…], pH 7.4, 0.25 M sucrose, 1 mM ethylenediamine-N,N,N′,N′-tetraacetic acid (EDTA), 1 mM dithiothreitol (DTT), 10 μg/ml of leupeptin, 10 μg/ml of antipain, 20 μg/ml of pepstatin) and finally taken up in 10 ml of homogenization buffer. The fat cells are homogenized in a Teflon-in-glass homogenizer (Braun-Melsungen) by 10 strokes at 1500 rpm and 15° C. The homogenizate is centrifuged (Sorvall SM24 tubes, 5000 rpm, 10 min, 4° C.). The […] between the overlying fatty layer and the pellet is removed and the centrifugation is repeated. The […] resulting from this is centrifuged again (Sorvall SM24 tubes, 20,000 rpm, 45 min, 4° C.). […] After incubation for 60 min at 4° C. (shake at intervals of 15 min), the batch is centrifuged (Sorvall SM24 tubes, 3000 rpm, 10 min, 4° C.). The supernatant is brought to pH 5.2 by addition of glacial acetic acid and incubated at 4° C. for 30 min. […] The suspension is dialyzed overnight at 4° C. against 25 mM TRIS/HCl, pH 7.4, 50% glycerol, 1 mM DTT, and 10 μg/ml of leupeptin, pepstatin, and antipain and then applied to a hydroxylapatite column (0.1 g per 1 ml of suspension, equilibrated with 10 mM potassium phosphate, pH 7.0, 30% glycerol, 1 mM DTT). The column is washed with four volumes of equilibration buffer at a flow rate of 20 to 30 ml/h. The HSL is eluted with a volume of equilibration buffer which contains 0.5 M potassium phosphate, then dialyzed (see above) and concentrated 5 to 10 times by ultrafiltration (Amicon Diaflo PM 10 filter) at 4° C. The partially purified HSL can be stored at −70° C. for 4 to 6 weeks.
6 mg of phosphatidylcholine and 6 mg of phosphatidylinositol are dissolved in 1 ml of chloroform each. 10 mg of NAG are dissolved in 1 ml of chloroform. […] The chloroform (225 μl total volume) is completely removed by overblowing with a stream of N2. The dried substrate can be stored at 4° C. for up to three days. For the preparation of the phospholipid vesicles/micelles having intercalated NAG (on the test day), the dried substrate is taken up in 20 ml of assay buffer (25 mM TRIS/HCl, pH 7.4; 150 mM NaCl) and two ultrasonic treatments with an ultrasonic probe (Branson Sonifier type 11, standard microtip): 1st treatment setting 2, 2×1 min, in between in each case 1 min on ice; 2nd treatment setting 4, 2×1 min, in between in each case 1 min on ice. […] Before use as a substrate (within the next 2 h), the solution is additionally incubated on ice for 15 min.
The assay is carried out at 30° C. for 60 min in 1.5 ml Eppendorf vessels or 96-hole plates.

[1] = HSL 40 μg, 60 min, NAG 0.05 mg/ml
[2] = HSL 60 μg, 60 min, NAG 0.05 mg/ml
[3] = HSL 80 μg, 60 min, NAG 0.05 mg/ml

## O=C(CCCCCCCCCCCNc1ccc([N+](=O)[O-])c2nonc12)OCC(O)CO (centres unmarked) [Compound (3)]
HSL 40 μg, 20 min, NAG 0.05 mg/ml
  Increase in the absorption at 481 nm: 477 ± 182 arb. units
HSL 40 μg, 30 min, NAG 0.05 mg/ml
  Increase in the absorption at 481 nm: 2249 ± 286 arb. units
HSL 40 μg, 45 min, NAG 0.05 mg/ml
  Increase in the absorption at 481 nm: 2968 ± 321 arb. units
[1]
  Absorption change, Decrease, 550 nm: 91 ± 19 arb. units
  Absorption change, Increase, 481 nm: 4623 ± 511 arb. units
  Increase in the absorption at 481 nm: 4065 ± 399 arb. units
HSL 40 μg, 75 min, NAG 0.05 mg/ml
  Increase in the absorption at 481 nm: 4834 ± 462 arb. units
HSL 40 μg, 90 min, NAG 0.05 mg/ml
  Increase in the absorption at 481 nm: 5472 ± 813 arb. units
HSL 40 μg, 120 min, NAG 0.05 mg/ml
  Increase in the absorption at 481 nm: 5702 ± 531 arb. units
HSL 40 μg, 180 min, NAG 0.05 mg/ml
  Increase in the absorption at 481 nm: 5961 ± 560 arb. units
[2]
  Absorption change, Decrease, 550 nm: 62 ± 17 arb. units
  Absorption change, Increase, 481 nm: 5466 ± 602 arb. units
[3]
  Absorption change, Decrease, 550 nm: 54 ± 15 arb. units
  Absorption change, Increase, 481 nm: 5913 ± 485 arb. units
HSL, conditions optimized for HSL
  Activity relative to HSL: 100%
NAG 0.002 mg/ml, HSL 5 μg, 60 min
  Increase in the absorption at 481 nm: 61 ± 9 arb. units
NAG 0.002 mg/ml, HSL 20 μg, 60 min
  Increase in the absorption at 481 nm: 194 ± 23 arb. units
NAG 0.002 mg/ml, HSL 40 μg, 60 min
  Increase in the absorption at 481 nm: 525 ± 77 arb. units
NAG 0.005 mg/ml, HSL 5 μg, 60 min
  Increase in the absorption at 481 nm: 109 ± 17 arb. units
NAG 0.005 mg/ml, HSL 20 μg, 60 min
  Increase in the absorption at 481 nm: 342 ± 58 arb. units
NAG 0.005 mg/ml, HSL 40 μg, 60 min
  Increase in the absorption at 481 nm: 1420 ± 122 arb. units
NAG 0.01 mg/ml, HSL 5 μg, 60 min
  Increase in the absorption at 481 nm: 227 ± 31 arb. units
NAG 0.01 mg/ml, HSL 20 μg, 60 min
  Increase in the absorption at 481 nm: 852 ± 77 arb. units
NAG 0.01 mg/ml, HSL 40 μg, 60 min
  Increase in the absorption at 481 nm: 2745 ± 264 arb. units
NAG 0.02 mg/ml, HSL 5 μg, 60 min
  Increase in the absorption at 481 nm: 388 ± 45 arb. units
NAG 0.02 mg/ml, HSL 20 μg, 60 min
  Increase in the absorption at 481 nm: 1758 ± 195 arb. units
NAG 0.02 mg/ml, HSL 40 μg, 60 min
  Increase in the absorption at 481 nm: 6705 ± 532 arb. units
NAG 0.05 mg/ml, HSL 5 μg, 60 min
  Increase in the absorption at 481 nm: 705 ± 61 arb. units
NAG 0.05 mg/ml, HSL 20 μg, 60 min
  Increase in the absorption at 481 nm: 3002 ± 409 arb. units
NAG 0.05 mg/ml, HSL 40 μg, 60 min
  Increase in the absorption at 481 nm: 11547 ± 912 arb. units
NAG 0.075 mg/ml, HSL 5 μg, 60 min
  Increase in the absorption at 481 nm: 1121 ± 107 arb. units
NAG 0.075 mg/ml, HSL 20 μg, 60 min
  Increase in the absorption at 481 nm: 768 ± 502 arb. units
